Experimental data from patent US20100138935A1, “Detection of cellular stress” (priority 2004, published 2010).

What was measured:
HOZ mice [1] = assay: Histopathology (H&E) of HOZ mouse liver and kidney; format: in vivo; settings: 10 mg/kg i.p. in saline, 24 hours
Protocol: Two further slices (˜2 mm thickness) were placed in 10% neutral buffered formalin (10% NBF) overnight then processed, sectioned and stained with haematoxylin and eosin (H&E).
Initially, one HOZ mouse was given 10 mg/kg body weight cadmium chloride i.p. One control animal received the vehicle solution, isotonic saline, i.p. and an untreated animal was used as a second control. The animals were killed 24 hours after dosing and liver, kidney and brain were collected for H&E staining and lacZ histology.
Sections of HOZ mouse liver and kidney were prepared and stained according to standard procedures (H&E). (a, b) Naive control; (c, d) Saline treated; (e, f) Cadmium chloride treated (10 mg/kg i.p. in saline). All images in FIG. 5 are of H&E stained sections: (a, c and e) are of liver; b, d and f are of kidney (original magnification ×100).

HOZ mice [2] = assay: BUN as a marker of nephrotoxicity in HOZ mice; format: in vivo, mouse; parameters: BUN: unit not given here
Protocol: Terminal blood samples were taken by cardiac puncture into lithium/heparin-coated tubes for preparation of plasma. Tissues, as defined in each protocol, were routinely dissected as follows:
Following removal into tubes suitable for plasma preparation, venous blood samples were mixed on a roller for 10 minutes then cooled on ice. Red blood cells were removed by centrifugation at 2,000 rpm for 10 minutes at 8-10° C. The supernatant (plasma) was transferred to a second tube and stored at −70° C. until required for analysis.
Plasma samples were analysed for appropriate analytes on a Roche autoanalyser (Cobas Integra 400) according to the manufacturer's instructions. The routine markers measured included: (for liver damage) plasma alanine aminotransferase (ALT), aspartate aminotransferase (AST) and alkaline phosphatase (ALP) and (for kidney damage) plasma creatinine and blood urea nitrogen (BUN).
The increase in BUN was 6-fold at 8 hours and 44-fold after 24 hours.

[3] = tested on: HO-1-LacZ (HOZ) transgene; assay: LacZ transgene expression in HO-1-LacZ (HOZ) reporter mice; format: in vivo, mouse
Protocol: Each test compound was dissolved in the appropriate vehicle solution and administered by intraperitoneal injection (i.p.) at a dose volume of 10 ml/kg. Wherever possible, both naive (untreated) and vehicle-treated controls were used. If a test item whose toxicity in the mouse is poorly characterised was to be used, a dose-ranging experiment was conducted prior to the main experiment. The test item was administered to a single mouse which was monitored for any adverse effects 6-8 hours and 24 hours later. If the single dose ranging mouse tolerated the treatment, the remaining mice were administered the test item according to the protocol.
Two slices of tissue (˜2 mm thickness) were removed for histochemical analysis of LacZ expression according to methods described below.
Tissues were washed with PBS and prefixed in 0.2% glutaraldehyde in PBS containing 0.1M MgCl2 and 5 mM EDTA, pH 7.3, for 4 hours at 4° C. on a shaker. After fixation, the tissues were transferred to 20% Sucrose solution and dehydrated overnight at 4° C. The next day they were embedded in cryo-M-bed medium on cork discs and lowered slowly into liquid nitrogen then transferred to −80° C. until sections were required.
Cryostat sample and chamber temperatures were set to −30° C. The sample to be sectioned was placed in the cryostat one hour prior to sectioning to allow equilibration at the appropriate temperature. Frozen sections (10 μm) were cut and placed on aminopropyltriethoxysilane (APES) coated slides.
Prior to staining, sections were incubated in 0.2% glutaraldehyde (as above) for 10 minutes at room temperature then washed twice (5 min each) in PBS containing 2 mM MgCl2, 0.01% sodium deoxycholate and 0.02% % Nonidet-P40. Sections were then […] the same wash solution containing 1 mg/ml X-gal, 5 mM potassium ferrocyanide and 5 mM potassium ferricyanide overnight at 37° C. then washed twice in PBS for 5 min, allowed to air dry and mounted in aqueous mounting medium (Hydromount). Slides were evaluated and photographed. • Frozen Method 2
Tissues were excised, immediately placed into chilled 4% paraformaldehyde containing 0.1% glutaraldehyde and 2 mM MgCl2 in PBS, and fixed in the above solution for 3 hours at 2-8° C. with gentle shaking. Fixed tissues were washed at 2-8° C. for 3×5 minutes with chilled PBS containing 2 mM MgCl2 and dehydrated overnight at 2-8° C. in PBS containing 2 mM MgCl2 and 30% (w/v) sucrose overnight The next day dehydrated tissues were embedded in OCT embedding medium using an isopentane/dry ice bath. Embedded tissues were stored at −70° C. until they could be cryosectioned.
Frozen sections were washed three times for 5 minutes in PBS containing 2 mM MgCl2 at 2-8° C. then 3×30 min in detergent wash (PBS containing 2 mM MgCl2 0.01% Nonidet P40 and 0.1% Sodium Deoxycholate) at 2-8° C. They were then stained overnight in PBS containing 2 mM MgCl2, 0.02% Nonidet P40, 0.1% Sodium Deoxycholate, 5 mM Potassium ferrocyanide, 5 mM Potassium ferricyanide, and 0.1% X-gal at 37° C. The next day, the slides were washed three times for 5 minutes in PBS containing 2 mM MgCl2 followed by three times for 5 minutes in PBS at room temperature. They were equilibrated with 100% ethanol (5 min) and counterstained with Eosin for 1 min at room temperature. Following dehydration and mounting they were evaluated and photographed. • Whole Mount Method
Tissue specimens that had been prefixed in fresh 4% paraformaldehyde were stained immediately using the procedure for “Whole Mount X-Gal Histochemistry of Transgenic Animal Tissues” (see http://www.rodentia.com/wmc/docs/lacZ bible.html), summarised below) was followed, and the post-fixed tissues were transferred to 70% (v/v) ethanol.
Following fixation for one hour in 4% paraformaldehyde, tissues were rinsed three times, for thirty minutes each, with rinse buffer (100 mM sodium phosphate (pH 7.3), 2 mM MgCl2, 0.01% sodium deoxycholate, 0.02% NP-40) at room temperature. […]

`[Cl][Cd][Cl]` [Cadmium Chloride, cadmium chloride] was tested, and the “kidney histology (H&E)” value (HOZ mice [1]) was “occasional necrotic proximal convoluted tubules (PCTs)”, the “liver histology (H&E)” value (HOZ mice [1]) was “acute toxicity manifesting as hepatocyte vacuolation and areas of necrosis associated with deposits of erythrocytes” and the BUN (HOZ mice [2]; female, 1 mg/kg, 8 hours) was 5.10. It also gave a BUN (HOZ mice [2]; female, 1 mg/kg, 24 hours) of 4.36, a BUN (HOZ mice [2]; female, 2 mg/kg, 8 hours) of 3.33 and a BUN (HOZ mice [2]; female, 2 mg/kg, 24 hours) of 2.85. For the same compound, the BUN (HOZ mice [2]; female, 4 mg/kg, 8 hours) was 4.77, the BUN (HOZ mice [2]; female, 4 mg/kg, 24 hours) was 3.66 and the “nephrotoxicity as measured by BUN” value (HOZ mice [2]; female, 8 mg/kg) was “mild nephrotoxicity”. The BUN (HOZ mice [2]; female, 8 mg/kg, 8 hours) was 22.86, the BUN (HOZ mice [2]; female, 8 mg/kg, 24 hours) was 98.16 and the “increase in BUN” value (HOZ mice [2]; female, 8 mg/kg, after 24 hours) was 44 fold. For the same compound, the “increase in BUN” value (HOZ mice [2]; female, 8 mg/kg, at 8 hours) was 6 fold, the “nephrotoxicity as measured by BUN” value (HOZ mice [2]; male mice) was “No nephrotoxicity” and the BUN (HOZ mice [2]; male, 1 mg/kg, 8 hours) was 4.54. For the same compound, the BUN (HOZ mice [2]; male, 1 mg/kg, 24 hours) was 5.27, the BUN (HOZ mice [2]; male, 2 mg/kg, 8 hours) was 4.24 and the BUN (HOZ mice [2]; male, 2 mg/kg, 24 hours) was 5.10. For the same compound, the BUN (HOZ mice [2]; male, 4 mg/kg, 8 hours) was 3.87, the BUN (HOZ mice [2]; male, 4 mg/kg, 24 hours) was 4.11 and the BUN (HOZ mice [2]; male, 8 mg/kg, 8 hours) was 3.84. For the same compound, the BUN (HOZ mice [2]; male, 8 mg/kg, 24 hours) was 4.85, the “expression of the HOZ gene in kidney” value ([3]; 8 mg/kg, 8 hours after dosing) was “detectable expression” and the “LacZ expression in brain” value ([3]; HOZ mice, with or without cadmium chloride treatment) was “no evidence of LacZ expression”. The “LacZ staining in liver” value ([3]; HOZ mouse, 10 mg/kg i.p. in saline, 24 hours after dosing) was “intense blue staining”, the “LacZ staining in kidney (proximal convoluted tubules)” value ([3]; HOZ mouse, 10 mg/kg i.p. in saline, 24 hours, versus naive and saline controls) was “frequency of stained PCTs was much higher” and the “HOZ gene expression in liver” value ([3]; either sex, 8 mg/kg i.p., 24 hours) was “clearly apparent”. For the same compound, the “LacZ staining in liver” value ([3]; female, 4 mg/kg i.p., 8 hours) was “weak LacZ staining”, the “HOZ gene expression in liver” value ([3]; female, 2-8 mg/kg i.p., 8 hours) was “no consistent evidence of HOZ expression” and the “HOZ gene expression in liver” value ([3]; female, lower doses (2, 4 mg/kg) i.p., 24 hours) was “none was evident”. For the same compound, the “HOZ gene expression in liver” value ([3]; male, 8 mg/kg i.p., 8 hours) was “High levels of HOZ gene expression”, the “HOZ gene expression in liver” value ([3]; male, lower doses (2, 4 mg/kg) i.p., 8 hours) was “lower levels of expression” and the “HOZ gene expression in liver” value ([3]; male, lower doses (2, 4 mg/kg) i.p., 24 hours) was “some HOZ expression was also apparent”.
